From US11377473B2, “Albumin-binding prodrugs of auristatin E derivatives” (priority 2017, dated 2022)

Columns and labels:
[1] = Accelerated degradation of lyophilized auristatin formulations; format: physicochemical; settings: 55° C. for up to 264 hours
Description: The APIs were dissolved in the lyophilization buffer which contained 2-HPβCD, 10 mM sodium citrate pH 6.2, 50% tert-butyl alcohol (V/V)). For the AE-Keto derivatives 2% (w/v) 2-HPβCD was employed to dissolve the AE-Keto APIs at 1.27 mM concentration; for the AE-Ester derivatives 4% (w/v) 2-HPβCD was used to dissolve the APIs at 1.05 mM concentration. The dissolved APIs were sterile filtered using an Acrodisc Fluorodyne II syringe filter (0.2 μm). The sterile solutions were pipetted into lyophilization vials which were then partially sealed using a rubber stopper. The vials were subsequently placed into the freeze dryer for lyophilization. The vials were frozen on the freeze dryer shelf at −40° C. for 2 hours, after 2 hours main drying was started. Main drying was run for 26 hours, parameters: shelf temperature −20° C., vacuum 0.0048 mbar. After main drying, final drying was initiated. Final drying was run for 16 hours, parameters: shelf temperature 20° C., vacuum 0.0047 mbar. […]
The sealed vials were incubated at 55° C. using an Eppendorf Thermomixer C with a plate insert (Smartblock) and lid. […] Stability of the APIs was determined by HPLC (method 8, 254 nm for AE-Keto derivatives, 310 nm for AE-Ester derivatives). The percentage of maleimide hydrolysis at each time point was determined by comparison to the AUC for each API at time 0.

[2] = biological target: T1, cysteine-34 of human serum albumin (Homo sapiens, UniProt P02768); test: Binding specificity to cysteine-34 of human serum albumin in human plasma (HIC); format: in vitro ADME; settings: 5 minutes at 37° C.
T1 construct: from tissue; host or cells: human plasma (frozen, thawed, filtered)
Description: The albumin-binding auristatin-Sulf07 derivatives were reconstituted in 50 mM sodium phosphate buffer pH 7.6 and 5% sucrose which contained 2-HPβCD. 2% HPβCD concentration was used to reconstitute the AE-Keto-Sulf07 and 4% for the AE-Ester-Sulf07 respectively. Both drugs were reconstituted at a concentration of 1 mg/mL (AE-Ester-Sulf07 780 μM, AE-Keto-Sulf07 880 μM).
Human plasma was removed from −80° C. storage and allowed to reach room temperature. The thawed plasma was spun down at 13.6 kRPM for 60 seconds, the supernatant was filtered through filter needle (5 μm) and subsequently through a 0.45 μm CA membrane. 180 μL of the appropriate plasma was used for each binding experiment. The plasma was incubated at 37° C. using an Eppendorf Thermomixer C. After 30 minutes incubation 20 μL of the appropriate albumin-binding auristatin-Sulf07 derivative was added. The albumin-binding drug was allowed to react in the plasma for 5 minutes at 37° C. After 5 minutes the solution was analyzed directly by HPLC hydrophobic interaction chromatography (HIC, method 6, 250 nm) to confirm the site specific conjugation to albumin and formation of the albumin drug conjugate.

[3] = system: renal cell cancer model RXF631; test: Human renal cell cancer model RXF631, small tumors; format: in vivo, NMRI nude mice
From the text: (§1) Mice were kept under a 14-hour light/10-hour dark, artificial light cycle. The animals were fed with autoclaved Teklad Global 19% Protein Extruded Diet (T.2019S.12) from Envigo RMS SARL and had access to sterile filtered and acidified (pH 2.5) tap water which was changed twice weekly. Feed and water were provided ad libitum. […] Animals were routinely monitored twice daily on working days and daily on Saturdays and Sundays. Starting on day 0, animals were weighed twice a week. Relative body weights (RBW) of individual animals were calculated by dividing the individual absolute body weight on day X (BWx) by the individual body weight on the day of randomization multiplied by 100%. […] Tumor volumes were calculated according to the following equation: […]
(§2) Statistical analysis was only carried out if at least 50% of the initially randomized animals in a relevant group were still alive. Comparisons between test groups were carried out for the same days. By convention, p-values ≤0.05 indicate significance of tumor inhibition. Statistical calculations were performed using GraphPad Prism bioanalytic software (San Diego Calif. USA, www.graphpad.com).
The initial evaluation of auristatin E and the albumin-binding auristatin E derivative AE-Ester-Sulf07 in a human renal cell cancer model RXF631 was carried out as described in the general procedure for a patient-derived xenograft model.

[4] = system: malignant melanoma cancer model A375; test: Human malignant melanoma cancer model A375, small tumors; format: in vivo, NMRI nude mice
Description: Feed and water were provided ad libitum. […] Identification used: ear mark and cage labels. […] Tumor volumes were calculated according to the following equation: […]
The evaluation of auristatin E and the albumin-binding auristatin E derivative AE-Keto-Sulf07 in a human malignant melanoma cancer model A375 was carried out as described in the general procedure for cell-line-derived xenograft models.
Stock solutions were prepared as follows: • 1) 7 mice, 29 g average weight, 135 mm^3 average median tumor volume on day of randomization: 0.3 mg/kg auristatin E TFA salt (AE equiv.) dosed twice weekly for 3 weeks on day 0, 6, 9, 13, 16, 19≡0.35 mg/kg≡7.1 μg/20 g mouse.

[5] = system: NSCLC xenograft model LXFA737; test: Human non-small cell lung cancer model LXFA737, large tumors; format: in vivo, NMRI nude mice
From the text: as §1, §2
The evaluation of auristatin E and the albumin-binding auristatin E derivative AE-Keto-Sulf07 in a human non-small cell lung cancer model LXFA737 was carried out as described in the general procedure for patient-derived xenograft models.
Sample preparation: 51 mg weighed in a 100 mL vial dissolved in 36.5 mL 50/50 tert-butanol/10 mM sodium citrate buffer, 3% 2-HPßCD—pH 6.2; 2.4 mL were aliquoted in 4 mL vials.

[6] = 3.0 mg/kg six times twice weekly

T1 sequence (P02768 25-609): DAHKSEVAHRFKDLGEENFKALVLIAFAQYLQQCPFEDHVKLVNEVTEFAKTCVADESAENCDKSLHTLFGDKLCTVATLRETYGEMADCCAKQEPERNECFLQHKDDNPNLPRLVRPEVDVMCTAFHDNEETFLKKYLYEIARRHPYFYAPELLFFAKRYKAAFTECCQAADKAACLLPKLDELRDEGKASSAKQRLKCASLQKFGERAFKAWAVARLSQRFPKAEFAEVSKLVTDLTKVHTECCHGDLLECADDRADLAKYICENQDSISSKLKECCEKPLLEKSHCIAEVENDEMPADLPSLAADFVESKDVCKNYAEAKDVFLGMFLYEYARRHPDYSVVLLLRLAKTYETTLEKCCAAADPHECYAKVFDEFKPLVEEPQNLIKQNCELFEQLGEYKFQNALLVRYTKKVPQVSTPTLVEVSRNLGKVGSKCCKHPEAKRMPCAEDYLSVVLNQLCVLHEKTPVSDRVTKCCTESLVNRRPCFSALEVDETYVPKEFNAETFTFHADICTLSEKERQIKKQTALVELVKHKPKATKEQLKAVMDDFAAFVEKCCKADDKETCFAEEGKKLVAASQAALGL

Molecule | stability under accelerated degradation conditions (maleimide hydrolysis) [1] | specificity of binding to albumin [2] | minimum tumor volume ([3]; 2.2 mg/kg (3.0 mg/kg on day 15 and 19) twice weekly) [mm^3] | tumor response ([3]; 2.2 mg/kg (3.0 mg/kg on day 15 and 19) twice weekly, day 24 to day 53) | p, antitumor efficacy versus auristatin E ([3]; 2.2 mg/kg (3.0 mg/kg on injection day 15 and 19) versus auristatin E 0.3 mg/kg, twice weekly) | side effects ([3]; 2.2-3.0 mg/kg twice weekly) | animals lost ([3]; 2.2-3.0 mg/kg, on day 20, 43 and 66) | transient body weight loss ([3]; 2.2-3.0 mg/kg, reached on day 31) [%] | tumor response ([4]; 0.3 mg/kg six times twice weekly, until day 21) | antitumor activity ([5]; 0.3 mg/kg 8 times twice weekly) | tumor response ([3]; 0.3 mg/kg twice weekly, up to day ˜40) | body weight [4, 6] | side effects [4, 6] | tumor response ([4]; 3.0 mg/kg six times twice weekly, day 19 until end of study on day 37) | p, antitumor efficacy versus auristatin E ([4]; 3.0 mg/kg versus auristatin E 0.3 mg/kg, six injections twice weekly, day 27 to day 37) | final tumor volume ([4]; 3.0 mg/kg, day 37) [mm^3] | side effects ([5]; 4.5 mg/kg 8 times twice weekly) | tumor response ([5]; 4.5 mg/kg 8 times twice weekly, day 15 until end of study on day 59) | p, antitumor efficacy versus auristatin E ([5]; 4.5 mg/kg versus auristatin E 0.3 mg/kg, 8 times twice weekly, day 28)
2-(2-(1-(4-(((1S,2R)-2-((2R,3R)-3-((S)-1-((3R,4R,5S)-4-((S)-2-((R)-2-(dimethylamino)-3-methylbutanamido)-N,3-dimethylbutanamido)-3-methoxy-5-methylheptanoyl)pyrrolidin-2-yl)-3-methoxy-2-methylpropanamido)-1-phenylpropoxy)carbonyl)phenyl)ethylidene)hydrazine-1-carbonyl)-5-(6-(2,5-dioxo-2,5-dihydro-1H-pyrrol-1-yl)hexanamido)benzenesulfonic acid [AE-Ester-Sulf07] | more stable than the respective EMCH derivatives | demonstrated | 1 | complete remission (complete remission <10%) | < 0.05 | Wounds due to biting and scratching were also observed starting from day 17 | Two mice died, and one had to be sacrificed for general bad conditions | 9 | – | – | – | – | – | – | – | – | – | – | –
CC[C@H](C)[C@@H]([C@@H](CC(=O)N1CCC[C@H]1[C@H](OC)[C@@H](C)C(=O)N[C@H](C)[C@@H](O)c1ccccc1)OC)N(C)C(=O)[C@@H](NC(=O)[C@H](C(C)C)N(C)C)C(C)C [auristatin E] | – | – | – | – | – | – | – | – | stable disease (stable disease >75-125%) | did not show any activity | stable disease (stable disease >75-125%) | – | – | – | – | – | – | – | –
CC[C@H](C)[C@@H]([C@@H](CC(=O)N1CCC[C@H]1[C@H](OC)[C@@H](C)C(=O)N[C@H](C)C(=NNC(=O)c1ccc(NC(=O)CCCCCN2C(=O)C=CC2=O)cc1S(=O)(=O)O)c1ccccc1)OC)N(C)C(=O)[C@@H](NC(=O)[C@H](C(C)C)N(C)C)C(C)C [AE-Keto-Sulf07, 2-(2-((R)-2-((2R,3R)-3-((S)-1-((3R,4S,5S)-4-((S)-2-((S)-2-(dimethylamino)-3-methylbutanamido)-N,3-dimethylbutanamido)-3-methoxy-5-methylheptanoyl)pyrrolidin-2-yl)-3-methoxy-2-methylpropanamido)-1-phenylpropylidene)hydrazine-1-carbonyl)-5-(6-(2,5-dioxo-2,5-dihydro-1H-pyrrol-1-yl)hexanamido)benzenesulfonic acid] | more stable than the respective EMCH derivatives | demonstrated | – | – | – | – | – | – | – | – | – | only a slight reduction in body weight growth compared to the control | no detectable side effects | complete remission (complete remission <10%) | < 0.01 | 1 | No side effects were registered | partial tumor remission | < 0.01
